IC50 data for 22 compounds are collected here from patent US11446287B2, “Compounds and methods for EP300 or CBP modulation and indications therefor” (Opna Immuno-Oncology SA, priority 2019, dated 2022).

Structures are written as SMILES.

This assay addresses T1, Recombinant human CBP containing the bromodomain (CBP-BD (1043-1159)) (Homo sapiens, UniProt Q92793).
T1 construct: Recombinant human CBP bromodomain (CBP-BD (1043-1159)); made in house; host or cells: E. coli BL21-CodonPlus (DE3), modified pET vector
The assay is described as follows: CBP Alphascreen binding assay. The conditions noted are these: read-out: CREBBP (CBP) IC50. The procedure, abridged:
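Buffer: 50 mM HEPES pH 7.5, 50 mM NaCl, 0.01% BSA, 0.01% Triton X-100, 2 mM DTT. The signal was normalised to plate controls and fitted with a four-parameter curve to give IC50.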

T1 sequence (Q92793 1081-1197): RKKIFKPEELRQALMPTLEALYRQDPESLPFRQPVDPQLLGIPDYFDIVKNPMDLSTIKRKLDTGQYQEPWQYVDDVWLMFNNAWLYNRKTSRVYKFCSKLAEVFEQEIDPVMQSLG

For the compound `Cc1noc(C)c1-c1cnc2c(c1)c(-c1ccc(C(=O)O)cc1)cn2C(C)c1ncccn1` (stereo not shown) [P-0013, 4-(5-(3,5-dimethylisoxazol-4-yl)-1-(1-(pyrimidin-2-yl)ethyl)-1H-pyrrolo[2,3-b]pyridin-3-yl)benzoic acid], the IC50 was 0.1 to 1000 nM.

With `Cc1noc(C)c1-c1cnc2c(c1)c(-c1ccc(C(=O)O)cc1)cn2C(C)c1ccc(F)cn1` (stereo not shown) [P-0014, 4-(5-(3,5-dimethylisoxazol-4-yl)-1-(1-(5-fluoropyridin-2-yl)ethyl)-1H-pyrrolo[2,3-b]pyridin-3-yl)benzoic acid], the IC50 lay within 0.1 to 1000 nM. The same measure for `Cc1noc(C)c1-c1cnc2c(c1)c(-c1cccc(C(=O)O)c1)cn2C(c1ccccn1)C1CCCC1` (stereo not shown) [P-0015, 3-(1-(cyclopentyl(pyridin-2-yl)methyl)-5-(3,5-dimethylisoxazol-4-yl)-1H-pyrrolo[2,3-b]pyridin-3-yl)benzoic acid]: 0.1 to 1000 nM; for `Cc1noc(C)c1-c1cnc2c(c1)c(-c1ccc(F)c(C(=O)O)c1)cn2C(c1ccccn1)C1CCCC1` (stereo not shown) [P-0016, 5-(1-(cyclopentyl(pyridin-2-yl)methyl)-5-(3,5-dimethylisoxazol-4-yl)-1H-pyrrolo[2,3-b]pyridin-3-yl)-2-fluorobenzoic acid]: 0.1 to 1000 nM. The result for `Cc1noc(C)c1-c1cnc2c(c1)c(-c1ccnc(C(=O)O)c1)cn2C(c1ccccn1)C1CCCC1` (stereo not shown) [P-0017, 4-(1-(cyclopentyl(pyridin-2-yl)methyl)-5-(3,5-dimethylisoxazol-4-yl)-1H-pyrrolo[2,3-b]pyridin-3-yl)picolinic acid] reads 0.1 to 1000 nM; that for `Cc1noc(C)c1-c1cnc2c(c1)c(-c1cccc(CC(=O)O)c1)cn2C(c1ccccn1)C1CCCC1` (stereo not shown) [P-0018, 2-(3-(1-(cyclopentyl(pyridin-2-yl)methyl)-5-(3,5-dimethylisoxazol-4-yl)-1H-pyrrolo[2,3-b]pyridin-3-yl)phenyl)acetic acid], 0.1 to 1000 nM; that for `Cc1noc(C)c1-c1cnc2c(c1)c(-c1ccncc1)cn2C(c1ccccn1)C1CCCC1` (stereo not shown) [P-0019, 4-(1-(cyclopentyl(pyridin-2-yl)methyl)-3-(pyridin-4-yl)-1H-pyrrolo[2,3-b]pyridin-5-yl)-3,5-dimethylisoxazole], 1000 to 8000 nM. The same measure for `Cc1noc(C)c1-c1cnc2c(c1)c(-c1ccc(C(=O)O)cc1OC1CC1)cn2[C@@H](C)c1ccccn1` [P-0170, (S)-3-cyclopropoxy-4-(5-(3,5-dimethylisoxazol-4-yl)-1-(1-(pyridin-2-yl)ethyl)-1H-pyrrolo[2,3-b]pyridin-3-yl)benzoic acid]: 0.1 to 1000 nM; for `Cc1noc(C)c1-c1cnc2c(-c3ccc(C(=O)O)cc3C#CC3CC3)cn([C@@H](C)c3ccccn3)c2c1` [P-0171, (S)-3-(cyclopropylethynyl)-4-(6-(3,5-dimethylisoxazol-4-yl)-1-(1-(pyridin-2-yl)ethyl)-1H-pyrrolo[3,2-b]pyridin-3-yl)benzoic acid]: 0.1 to 1000 nM; for `COc1ccc(C(=O)O)cc1-c1cn(C(C)(c2ccccn2)c2ccccn2)c2cc(-c3c(C)noc3C)cnc12` [P-0172, 3-(1-(1,1-di(pyridin-2-yl)ethyl)-6-(3,5-dimethylisoxazol-4-yl)-1H-pyrrolo[3,2-b]pyridin-3-yl)-4-methoxybenzoic acid]: 1000 to 8000 nM. Regarding `CCOc1cc(C(=O)O)cc(OCC)c1-n1cc(-c2cccnc2)c2ncc(-c3c(C)noc3C)cc21` [P-0173, 4-(6-(3,5-dimethylisoxazol-4-yl)-3-(pyridin-3-yl)-1H-pyrrolo[3,2-b]pyridin-1-yl)-3,5-diethoxybenzoic acid], the 50% inhibitory concentration (IC50) lay in the range of 0.1 to 1000 nM. The same measure for `CCOc1cc(C(=O)O)cc(OC(C)C)c1-c1cn([C@@H](C)c2ccccn2)c2ncc(-c3c(C)noc3C)cc12` [P-0174, (S)-4-(5-(3,5-dimethylisoxazol-4-yl)-1-(1-(pyridin-2-yl)ethyl)-1H-pyrrolo[2,3-b]pyridin-3-yl)-3-ethoxy-5-isopropoxybenzoic acid]: 0.1 to 1000 nM. Regarding `Cc1noc(C)c1-c1cnc2c(c1)c(-c1ccc(C(=O)O)cc1OC(F)(F)F)cn2-c1cccnc1` [P-0175, 4-(5-(3,5-dimethylisoxazol-4-yl)-1-(pyridin-3-yl)-1H-pyrrolo[2,3-b]pyridin-3-yl)-3-(trifluoromethoxy)benzoic acid], the concentration for half-maximal inhibition (IC50) was 0.1 to 1000 nM.

Turning to `COc1ccncc1-n1cc(-c2ccc(C(=O)O)cc2OC(F)(F)F)c2cc(-c3c(C)noc3C)cnc21` [P-0176, 4-(5-(3,5-dimethylisoxazol-4-yl)-1-(4-methoxypyridin-3-yl)-1H-pyrrolo[2,3-b]pyridin-3-yl)-3-(trifluoromethoxy)benzoic acid], the half-maximal inhibitory concentration (IC50) fell in the range of 0.1 to 1000 nM. The result for `Cc1noc(C)c1-c1cnc2c(c1)c(-c1ccc(C(=O)O)cc1OC(F)(F)F)cn2-c1cnccc1Cl` [P-0177, 4-(1-(4-chloropyridin-3-yl)-5-(3,5-dimethylisoxazol-4-yl)-1H-pyrrolo[2,3-b]pyridin-3-yl)-3-(trifluoromethoxy)benzoic acid] reads 0.1 to 1000 nM; that for `Cc1noc(C)c1-c1cnc2c(c1)c(-c1ccc(C(=O)O)cc1C#CC1CC1)cn2[C@@H](C)c1ccccn1` [P-0178, (S)-3-(cyclopropylethynyl)-4-(5-(3,5-dimethylisoxazol-4-yl)-1-(1-(pyridin-2-yl)ethyl)-1H-pyrrolo[2,3-b]pyridin-3-yl)benzoic acid], 1000 to 8000 nM. The same measure for `Cc1noc(C)c1-c1cnc2c(c1)c(-c1ccc(C(=O)O)cc1OC1CCC1)cn2[C@@H](C)c1ccccn1` [P-0179, (S)-3-cyclobutoxy-4-(5-(3,5-dimethylisoxazol-4-yl)-1-(1-(pyridin-2-yl)ethyl)-1H-pyrrolo[2,3-b]pyridin-3-yl)benzoic acid]: 0.1 to 1000 nM; for `Cc1noc(C)c1-c1cnc2c(c1)c(-c1ccc(C(=O)O)cc1OC(F)(F)F)cn2-c1ncccc1C(F)(F)F` [P-0180, 4-(5-(3,5-dimethylisoxazol-4-yl)-1-(3-(trifluoromethyl)pyridin-2-yl)-1H-pyrrolo[2,3-b]pyridin-3-yl)-3-(trifluoromethoxy)benzoic acid]: 0.1 to 1000 nM; for `Cc1noc(C)c1-c1cnc2c(c1)c(-c1ccc(C(=O)O)cc1C1CC1)cn2[C@@H](C)c1ccccn1` [P-0181, (S)-3-cyclopropyl-4-(5-(3,5-dimethylisoxazol-4-yl)-1-(1-(pyridin-2-yl)ethyl)-1H-pyrrolo[2,3-b]pyridin-3-yl)benzoic acid]: 0.1 to 1000 nM. The same measure for `Cc1noc(C)c1-c1cnc2c(c1)c(-c1ccc(C(=O)O)cc1OC(F)(F)F)cn2-c1ncccc1F` [P-0182, 4-(5-(3,5-dimethylisoxazol-4-yl)-1-(3-fluoropyridin-2-yl)-1H-pyrrolo[2,3-b]pyridin-3-yl)-3-(trifluoromethoxy)benzoic acid]: 0.1 to 1000 nM; for `Cc1noc(C)c1-c1cnc2c(c1)c(-c1ccc(C(=O)O)cc1OC(F)(F)F)cn2-c1ncccc1Cl` [P-0183, 4-(1-(3-chloropyridin-2-yl)-5-(3,5-dimethylisoxazol-4-yl)-1H-pyrrolo[2,3-b]pyridin-3-yl)-3-(trifluoromethoxy)benzoic acid]: 0.1 to 1000 nM. `CCOc1cc(C(=O)O)cc(OCC)c1-n1cc(-c2ccc(F)cc2)c2ncc(-c3c(C)noc3C)cc21` [P-0184, 4-(6-(3,5-dimethylisoxazol-4-yl)-3-(4-fluorophenyl)-1H-pyrrolo[3,2-b]pyridin-1-yl)-3,5-diethoxybenzoic acid]: the IC50 was in the range of 0.1 to 1000 nM.

The term IC50 denotes the concentration needed to halve the response being measured.
